Test results taken from article PMC5094572, “A β‐mannan utilization locus in Bacteroides ovatus involves a GH36 α‐galactosidase active on galactomannans” (Febs Letters, 2016).

Tested on: T1, BoGal36A
T1 construct: gene Bacova_02091; predicted signal peptide removed, C-terminal His6 tag kept, pET28b+, E. coli BL21(DE3); tetramer (SEC 290 kDa)
Experiment: continuous assay, p-nitrophenol release at […] nm, Michaelis-Menten fit
Type: biochemical, Bacteroides ovatus
Settings: pH 6.0, 37 °C; 50 mM sodium citrate; 0.1-5 mM substrate

- Km: 132 ± 20 µM
Compound: O=[N+]([O-])c1ccc(O[C@H]2O[C@H](CO)[C@H](O)[C@H](O)[C@H]2O)cc1 [pNP-α-gal]
